Patent US20040038855A1 (priority 1999, published 2004)
Counter-ions that a name gives are not always drawn. Like-named read-outs stand apart in the source and are kept apart here.

What was measured:
[1] = target: T1, human NPY1 receptor (Homo sapiens, UniProt P25929); assay: Binding affinity at the human NPY1 receptor
T1 construct: expressed in transfected cells
T1 sequence (P25929 1-384): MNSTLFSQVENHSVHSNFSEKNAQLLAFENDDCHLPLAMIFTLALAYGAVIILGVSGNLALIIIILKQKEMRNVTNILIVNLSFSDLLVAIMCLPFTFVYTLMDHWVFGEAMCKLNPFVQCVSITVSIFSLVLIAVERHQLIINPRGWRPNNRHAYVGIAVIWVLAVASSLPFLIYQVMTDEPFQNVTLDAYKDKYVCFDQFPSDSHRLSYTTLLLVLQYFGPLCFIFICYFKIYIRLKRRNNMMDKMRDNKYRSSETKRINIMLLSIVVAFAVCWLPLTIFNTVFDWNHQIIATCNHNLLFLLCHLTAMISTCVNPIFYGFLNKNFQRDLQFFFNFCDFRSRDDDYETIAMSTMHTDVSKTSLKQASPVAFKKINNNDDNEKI
Source text: (§1) The design of such compounds can be optimized by determining their binding affinity at the recombinant MCH1, NPY1, NPY2, Gal1, Gal2, Gal3, and 5HT2C receptors. The methods to obtain the cDNA of the receptor, express said receptors in heterologous systems, and carry out assays to determine binding affinity are described in the following publications: human NPY1 (Larhammar et al., 1992), human NPY5 (U.S. Pat. No. 5,602,024, the disclosure of which is hereby incorporated by reference in its entirety into this application), human Gall (Habert-Ortoli et al., 1994), human Gal2 (Smith et al., 1997), human Gal3 (Smith et al., 1998), and rat 5HT2C (Julius et al., 1988). Additionally, the compounds would optimally not bind at the following receptors due to possible side effects: human H1 histamine and human H2 histamine receptors; human alpha-1A adrenergic, human alpha-1D adrenergic, human alpha-2A adrenergic, human alpha-2B adrenergic, and human alpha-2C adrenergic receptors; human dopamine D1, D2, D3, D4, and D5 receptors; the β-adrenoceptor; and the human 5HT1A, human 5HT1B, human 5HT1D, human 5HT1E, human 5HT1F, human 5HT2A, rat 5HT2C, human 5HT4, human 5HT6, and human 5HT7 receptors.

[2] = target: T2, human NPY5 receptor (Homo sapiens, UniProt Q15761); assay: Binding affinity at the human NPY5 receptor
T2 construct: expressed in transfected cells
T2 sequence (Q15761 1-445): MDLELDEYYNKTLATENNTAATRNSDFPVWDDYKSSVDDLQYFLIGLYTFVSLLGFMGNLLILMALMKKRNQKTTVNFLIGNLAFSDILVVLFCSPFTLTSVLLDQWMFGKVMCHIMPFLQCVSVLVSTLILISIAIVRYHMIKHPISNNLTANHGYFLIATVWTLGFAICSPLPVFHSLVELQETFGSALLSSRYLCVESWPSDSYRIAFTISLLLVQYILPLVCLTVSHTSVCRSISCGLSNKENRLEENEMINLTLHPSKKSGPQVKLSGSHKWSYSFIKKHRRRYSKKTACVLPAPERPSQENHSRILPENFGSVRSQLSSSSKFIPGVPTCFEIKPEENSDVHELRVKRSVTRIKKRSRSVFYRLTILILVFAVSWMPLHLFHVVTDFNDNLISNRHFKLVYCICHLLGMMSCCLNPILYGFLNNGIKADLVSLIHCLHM
Source text: as §1

[3] = target: T3, human GALR2 receptor (Homo sapiens, UniProt O43603); assay: Binding affinity at the human GALR2 receptor
T3 construct: expressed in transfected cells
T3 sequence (O43603 1-387): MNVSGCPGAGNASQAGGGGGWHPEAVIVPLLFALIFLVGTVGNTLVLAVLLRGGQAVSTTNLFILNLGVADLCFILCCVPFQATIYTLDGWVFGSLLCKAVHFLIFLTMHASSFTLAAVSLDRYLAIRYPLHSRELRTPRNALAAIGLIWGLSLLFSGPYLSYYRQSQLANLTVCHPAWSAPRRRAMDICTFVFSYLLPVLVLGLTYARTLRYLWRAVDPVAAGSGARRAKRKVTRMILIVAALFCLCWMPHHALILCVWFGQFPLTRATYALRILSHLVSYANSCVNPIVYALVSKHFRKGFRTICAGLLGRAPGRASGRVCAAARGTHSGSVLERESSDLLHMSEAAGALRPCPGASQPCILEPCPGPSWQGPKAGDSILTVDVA

[4] = target: human MCH1 receptor (Homo sapiens, UniProt Q99705); assay: Competition binding, membrane preparations of A293 cells expressing the human MCH1 receptor, [3H] Compound 10 as radioligand; set-up: expressed in transfected cells
Experimental: TRITIATED METHYL (4S)-3-{[(3-{4-[3-(ACETYLAMINO)PHENYL]-1-[…]}PROPYL)AMINO]CARBONYL}-4-(3,4-DIFLUOROPHENYL)-6-(METHOXYMETHYL)-2-OXO-1,2,3,4-TETRAHYDRO-5-PYRIMIDINECARBOXYLATE ([^3H] COMPOUND 10): This radiochemical synthesis was carried out by Amersham Pharmacia Biotech, Cardiff, Wales. A methanolic solution of methyl (4S)-3-({[3-(4-[3-(acetylamino)phenyl]-3,6-dihydro-1(2H)pyridinyl)propyl]amino}carbonyl)-4-(3,4-difluorophenyl)-6-(methoxymethyl)-2-oxo-1,2,3,4-tetrahydro-5-pyrimidinecarboxylate was exposed to tritium gas at 1 atmosphere pressure in the presence of 5% palladium on carbon with stirring overnight to give the tritiated methyl (4S)-3-{[(3-{4-[3-(acetylamino)phenyl]-1-piperidinyl}propyl)amino]carbonyl}-4-(3,4-difluorophenyl)-6-(methoxymethyl)-2-oxo-1,2,3,4-tetrahydro-5-pyrimidinecarboxylate ((+)-isomer) After purification by reverse phase HPLC (Hypersil ODS, 4.6×100 mm, methanol:H2O:Et3N 10:90:1 to 100:0:1 in 15 min at 1.0 mL/min, with radiochemical and UV detection), this product was used as a radioligand in the MCH1 binding assays. The same procedure was carried out with H2 gas in place of ^3H2 to afford the non-radioactive version of Compound 10.

[5] = Table 3b, A293 cell membranes, [3H] Compound 10, read-out: hMCH1* Ki

Sequence of human MCH1 receptor (Q99705 whole entry): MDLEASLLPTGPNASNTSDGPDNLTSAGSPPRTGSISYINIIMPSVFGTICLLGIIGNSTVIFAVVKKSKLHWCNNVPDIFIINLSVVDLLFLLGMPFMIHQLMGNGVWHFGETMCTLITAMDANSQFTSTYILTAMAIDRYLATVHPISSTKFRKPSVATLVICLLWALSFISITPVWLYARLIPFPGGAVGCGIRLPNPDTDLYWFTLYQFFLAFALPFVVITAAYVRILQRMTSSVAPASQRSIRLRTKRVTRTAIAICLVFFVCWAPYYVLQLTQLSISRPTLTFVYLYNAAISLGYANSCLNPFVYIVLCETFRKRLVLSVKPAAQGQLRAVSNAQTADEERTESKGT

2-(3,4-DIFLUOROPHENYL)4,5-DIHYDROIMIDAZOLE-1-CARBOXYLIC ACID {3-[4-PHENYL-4-(4-BROMO-5-METHYLTHIOPNEN-2-YL)]-PROPYL}-AMIDE [Example 19]
Ki ([1]; Table 3a, read-out: hMPY1 Ki): > 50 µM | Ki ([1]; Table 3b, read-out: hNPY1 Ki): > 50 µM | Ki ([2]; Table 3a, read-out: hNPY5 Ki): > 50 µM | Ki ([2]; Table 3b, read-out: hNPY5 Ki): > 50 µM | Ki ([3]; Table 3a, read-out: hGALR2 Ki): > 50 µM | Ki ([3]; Table 3b, read-out: hGALR2 Ki): > 50 µM | Ki [4, 5]: 3 nM | Ki ([4]; Table 3e, read-out: hMCH1 Ki): 3 nM | Ki ([4]; Table 3d, read-out: hMCH1 Ki): 3 nM

COC(=O)C1=C(C)NC(=O)N(C(=O)NCCCN2CCC3(CC2)OCc2ccccc23)C1c1ccc2nonc2c1 (single isomer, unassigned) [Example 18, HYDROCHLORIDE]
Ki [1]: > 50 µM | Ki ([1]; read-out: hNPY1 Ki, Table 3b): > 50 µM | Ki [2]: > 50 µM | Ki ([2]; read-out: hNPY5 Ki, Table 3b): > 50 µM | Ki [3]: > 50 µM | Ki ([3]; read-out: hGALR2 Ki, Table 3b): > 50 µM | Ki [4]: 4 nM

CCC1=C(C(=O)O)C(c2ccc(F)c(F)c2)N(C(=O)NCCCN2CCC3(CC2)OCc2ccccc23)C(=O)N1 (single isomer, unassigned; (+)) [Example 4, (+)-1,2,3,6-TETRAHYDRO-1-1N-[4-(BENZO-4′,5′(H)FURAN)PIPERIDIN-1-YL]PROPYL}-CARBOXAMIDO-4-ETHYL-6-(3,4-DIFLUOROPHENYL)-2-OXO-PYRIMIDINE-5 CARBOXYLIC ACID HYDROCHLORIDE]
Ki ([1]; Table 3a, read-out: hMPY1 Ki): > 50 µM | Ki ([1]; Table 3b, read-out: hNPY1 Ki): > 50 µM | Ki ([2]; Table 3a, read-out: hNPY5 Ki): > 50 µM | Ki ([2]; Table 3b, read-out: hNPY5 Ki): > 50 µM | Ki ([3]; Table 3a, read-out: hGALR2 Ki): > 50 µM | Ki ([3]; Table 3b, read-out: hGALR2 Ki): > 50 µM | Ki [4, 5]: 131 nM

COCC1=C(C(=O)OC)C(c2ccc(F)c(F)c2)N(C(=O)NCCCN2CCC(c3cccc(NC(C)=O)c3)CC2)C(=O)N1 (single isomer, unassigned; (-)) [Example 1, (−)-1,2,3,6-TETRAHYDRO-1-{N-[4-(3,-ACETAMIDO)-PHENYLPIPERIDIN-1-YL]PROPYL}CARBOXAMIDO-4-METHOXYMETHYL-6-(3,4-DIFLUORO-PHENYL)-2-OXOPYRIMIDINE-5-CARBOXYLIC ACID METHYL ESTER]
Ki ([1]; Table 3a, read-out: hMPY1 Ki): > 50 µM | Ki ([1]; Table 3b, read-out: hNPY1 Ki): > 50 µM | Ki ([2]; Table 3a, read-out: hNPY5 Ki): > 50 µM | Ki ([2]; Table 3b, read-out: hNPY5 Ki): > 50 µM | Ki ([3]; Table 3a, read-out: hGALR2 Ki): > 50 µM | Ki ([3]; Table 3b, read-out: hGALR2 Ki): > 50 µM | Ki [4, 5]: 40 nM

CCCCN(CCCC)c1ccc(CN2CCC(CNC(=O)N3C(=O)NC(C)=C(C(=O)OC)C3c3ccc4nonc4c3)CC2)cc1 (stereo not shown) [Example 6]
Ki ([1]; Table 3a, read-out: hMPY1 Ki): 6.67 µM | Ki ([1]; Table 3b, read-out: hNPY1 Ki): 6.67 µM | Ki ([2]; Table 3a, read-out: hNPY5 Ki): 4.74 µM | Ki ([2]; Table 3b, read-out: hNPY5 Ki): 4.74 µM | Ki ([3]; Table 3a, read-out: hGALR2 Ki): 14.9 µM | Ki ([3]; Table 3b, read-out: hGALR2 Ki): 14.9 µM | Ki [4, 5]: 463 nM

COCC1=C(C(=O)OC)[C@H](c2ccc(F)c(F)c2)N(C(=O)NCCCN2CCC(c3cccc(NC(C)=O)c3)CC2)C(=O)N1 [Example 10, (+)-1,2,3,6-TETRAHYDRO-1-{N-[4-(3,-ACETAMIDO)-PHENYLPIPERIDIN-1-YL]PROPYL}CARBOXAMIDO-4-METHOXYMETHYL-6-(3,4-DIFLUORO-PHENYL)-2-OXOPYRIMIDINE-5-CARBOXYLIC ACID METHYL ESTER]
Ki ([1]; Table 3a, read-out: hMPY1 Ki): > 50 µM | Ki ([1]; Table 3b, read-out: hNPY1 Ki): > 50 µM | Ki ([2]; Table 3a, read-out: hNPY5 Ki): > 50 µM | Ki ([2]; Table 3b, read-out: hNPY5 Ki): > 50 µM | Ki ([3]; Table 3a, read-out: hGALR2 Ki): > 50 µM | Ki ([3]; Table 3b, read-out: hGALR2 Ki): > 50 µM | Ki [4, 5]: 0.08 nM

CCCCN(CCCC)c1ccc(CNC[C@H]2CC[C@H](NC(=O)c3cccc4ccccc34)CC2)cc1 [Example 13, N1-[4-([4-(DIBUTYLAMINO)BENZYL]AMINOMETHYL)CYCLOHEXYL]-1-NAPHTH-AMIDE]
Ki ([1]; Table 3a, read-out: hMPY1 Ki): 9.6 µM | Ki ([1]; Table 3b, read-out: hNPY1 Ki): 9.6 µM | Ki ([2]; Table 3a, read-out: hNPY5 Ki): > 50 µM | Ki ([2]; Table 3b, read-out: hNPY5 Ki): > 50 µM | Ki ([3]; Table 3a, read-out: hGALR2 Ki): 4.73 µM | Ki ([3]; Table 3b, read-out: hGALR2 Ki): 4.73 µM | Ki [4, 5]: 171 nM

COC(=O)C1=C(C)NC(=O)N(C(=O)NCCCN2CCC3(CC2)OCc2ccccc23)C1c1ccc(F)c(F)c1 (stereo not shown) [Example 20, 4-(3,4-DIFLUORPHENYL)-6-METHYL-2-OXO-3-{[3-(4-SPIRO[ISOBENZOFURAN-1(3H),4′-PIPERIDINE]PROPYL}-1,2,3,4-TETRAHYDROPYRIMIDINE-5-CARBOXYLIC ACID METHYL ESTER]
Ki [1]: 27.1 µM | Ki ([1]; read-out: hMPY1 Ki, Table 3a): 27.1 µM | Ki [2]: > 50 µM | Ki ([2]; read-out: hNPY5 Ki, Table 3b): > 50 µM | Ki [3]: > 50 µM | Ki ([3]; read-out: hGALR2 Ki, Table 3b): > 50 µM | Ki [4]: 6 nM | Ki ([4]; read-out: hMCH1 Ki, Table 3e): 6 nM | Ki ([4]; read-out: hMCH1 Ki, Table 3d): 6 nM

O=C(CCCN1CCC(O)(c2ccc(Cl)cc2)CC1)c1ccc(Cl)cc1 [Example 29]
Ki [1]: > 50 µM | Ki ([1]; read-out: hNPY1 Ki, Table 3b): > 50 µM | Ki [2]: 46.1 µM | Ki ([2]; read-out: hNPY5 Ki, Table 3b): 46.1 µM | Ki [3]: > 50 µM | Ki ([3]; read-out: hGALR2 Ki, Table 3b): > 50 µM | Ki [4]: 350 nM
